Like-named read-outs stand apart in the source and are kept apart here.
Experiments:
fl-HDAC4 (wild-type) = molecular target: T1, fl-HDAC4 (wild-type) (Homo sapiens, UniProt P56524); assay: SPR binding analysis TasQ / fl-HDAC4
T1 construct: Full-length (fl) [A.A. 1-1082] recombinant human histone deacetylase 4 (rhHDAC4) protein; FLAG (N); GST (given as 'with or without'); made in house; host or cells: HEK293-T
Protocol: Surface Plasmon Resonance (SPR) Binding Analysis. SPR analysis was performed on the Biacore 3000™ system using CM5 sensor chips, certified buffers (HBS-P—10 mM HEPES, 0.15 M NaCl, pH 7.4, containing 0.005% v/v Surfactant P; HBS-EP-HBS-P with 3 mM EDTA) and reagents for immobilization and surface regeneration from Biacore, GE Healthcare, Uppsala Sweden. Evaluation of sensorgrams was performed using the BIA-evaluation Software version 4.1 and GraphPad Prism 4. Buffer of protein reagents were changed to HBS-P on Zeba spin desalting columns (Thermo Scientific) prior to being used in SPR analysis (Isaacs 2013).
A. Binding of wild-type and mutant forms of HDAC4 to immobilized TasQ. TasQ (ABR-215050; mol wt 406.4) was dissolved as a 40 mM solution in water with 1.5 equivalents of NaOH. TasQ with an amino-linker [i.e. —(CH2)2O(CH2)2—NH2](ABR-225180) in amide nitrogen position was used for amine coupling on to a Biacore CM5 sensor chip. A 1 mg/mL solution of ABR-225180 in HBS-P buffer was prepared and immobilized on a CM5 chip by injection at a flow rate of 5 or 10 μL/min until a stable response level was reached. Interaction of various HDAC4 forms with immobilized TasQ was studied by injection over this surface in HBS-P buffer containing 10 or 20 μM ZnCl2. Bound HDAC4 was removed by a pulse of 3 mM EDTA in HBS-P or 0.5 to 6.25 mM NaOH in water. In a second series of experiments, the ability of TasQ in solution to displace this binding was studied by pre-incubation of HDAC4 with TasQ as competitor.
B. Binding of TasQ to immobilized HDAC4 and NCoR1. Different variants of HDAC4 (full-length wild-type and mutant forms and the truncated protein) and full-length NCoR1 were immobilized on a CM5 chip using random amine coupling. Briefly, proteins were dissolved in 10 mM sodium acetate buffer at pH 5.0 or 5.5 and immobilized to the aimed level using the standard protocol from GE Healthcare. Serially diluted TasQ in HBS-P buffer with 10 or 20 μM Zn was injected (for 2 or 3 min at a flow rate of 30 μl/min) either directly or after a 1st injection of 1 mM DTT to reduce cysteines in the zinc conformation site in HDAC4. Regeneration was made with a short pulse of HBS-EP.
To evaluate the conformational requirements for TasQ's binding to HDAC4, surface plasmon resonance (SPR) analysis was utilized. To maximize conformational flexibility, TasQ is immobilized onto the surface of a Biacore CM5 sensor chip via an amino-linker [i.e. —(CH2)2—O—(CH2)2—NH2] in its amide nitrogen position.
By comparison, Linomide even at >30 μM in solution binds only 10-15% of the immobilized fl-HDAC4 protein despite the presence of Zn^+2 (FIG. 14). […] The fact that the KD for binding of soluble TasQ to immobilized fl-HDAC4 is higher than the KD for binding of soluble fl-HDAC4 with immobilized TasQ is predictable. This is because the conformational dynamics of fl-HDAC4 protein immobilized on the chip are more restrictive due to the multiple random amine coupling than the conformational dynamics of TasQ immobilized via a single amino-linker.
To address this possibility, a competitive binding assay was developed based upon the ability of TasQ in solution to compete with immobilized TasQ on the SPR-chip for binding to fl-HDAC4.

CYP1A1 = CYP1A1 mRNA induction in LNCaP cells (RT-PCR); assay type: cell-based; details: human, read-out: EC50 as a CYP1A inducer in LNCaP cells
Text: Real-time quantitative PCR (Q-PCR) analysis. […] ID NO: 2) and […] ID NO: 3). […] ID NO: 4) and […] ID NO: 5).

T1 sequence (P56524 whole entry): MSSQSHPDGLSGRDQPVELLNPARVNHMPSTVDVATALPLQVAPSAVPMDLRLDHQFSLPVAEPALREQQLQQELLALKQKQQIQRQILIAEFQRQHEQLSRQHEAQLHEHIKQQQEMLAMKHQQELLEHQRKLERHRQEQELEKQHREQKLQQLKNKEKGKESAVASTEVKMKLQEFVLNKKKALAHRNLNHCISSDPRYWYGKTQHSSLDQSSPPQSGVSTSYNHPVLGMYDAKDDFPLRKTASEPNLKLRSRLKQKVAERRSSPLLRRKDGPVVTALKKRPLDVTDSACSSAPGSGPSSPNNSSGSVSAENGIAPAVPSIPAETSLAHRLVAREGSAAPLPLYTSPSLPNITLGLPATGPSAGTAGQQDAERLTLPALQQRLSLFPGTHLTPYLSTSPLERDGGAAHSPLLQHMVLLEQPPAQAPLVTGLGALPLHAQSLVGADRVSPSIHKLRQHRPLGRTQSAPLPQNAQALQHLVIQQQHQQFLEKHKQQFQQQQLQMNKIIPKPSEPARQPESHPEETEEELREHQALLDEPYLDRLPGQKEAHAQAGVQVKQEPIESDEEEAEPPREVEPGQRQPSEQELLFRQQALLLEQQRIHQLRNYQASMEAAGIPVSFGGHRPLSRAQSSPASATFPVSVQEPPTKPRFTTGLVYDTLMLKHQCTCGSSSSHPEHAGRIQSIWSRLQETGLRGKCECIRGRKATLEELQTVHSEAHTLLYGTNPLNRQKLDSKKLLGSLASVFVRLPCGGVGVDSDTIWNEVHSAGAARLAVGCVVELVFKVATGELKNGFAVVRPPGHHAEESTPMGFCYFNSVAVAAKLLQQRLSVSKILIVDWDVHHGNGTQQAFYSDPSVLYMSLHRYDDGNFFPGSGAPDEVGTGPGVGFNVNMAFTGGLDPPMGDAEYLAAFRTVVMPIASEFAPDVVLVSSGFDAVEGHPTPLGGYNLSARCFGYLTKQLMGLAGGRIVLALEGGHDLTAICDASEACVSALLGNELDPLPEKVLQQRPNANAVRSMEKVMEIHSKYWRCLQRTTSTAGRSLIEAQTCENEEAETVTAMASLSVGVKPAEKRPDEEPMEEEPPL

For COc1cccc2c1c(O)c(C(=O)N(C)c1ccc(C(F)(F)F)cc1)c(=O)n2C [TasQ, Tasquinimod], the IC50 (fl-HDAC4 (wild-type); competitive SPR assay, read-out: IC50 of TasQ in solution to reduce binding of fl-wild-type HDAC4 to immobilized TasQ) was 1300 nM, the Kd (fl-HDAC4 (wild-type); compound in solution, immobilized fl-HDAC4, n=4, read-out: KD) was 4900 nM and the Kd (fl-HDAC4 (wild-type); fl-HDAC4 in solution, immobilized amine-linked TasQ, Zn2+, read-out: KD calculated from the on- and off-rates) was about 20 nM. The Kd (fl-HDAC4 (wild-type); fl-HDAC4 in solution, immobilized amine-linked TasQ, Zn2+, read-out: KD from the steady state dose-response curve) was about 130 nM and the EC50 (CYP1A1) was 1000 nM.

Source: patent publication US20250059139A1, “COMPOUNDS FOR TREATMENT OF CANCER” (THE JOHNS HOPKINS UNIVERSITY, priority 2021, published 2025)
